Article PMC7350407, “Kinetic Modifications of C4 PEPC Are Qualitatively Convergent, but Larger in Panicum Than in Flaveria” (Frontiers in Plant Science, 2020)
Read-outs that look alike come from different tables or passages of the source.

How the values were obtained:
[1] = target: T1, Panicum pygmaeum (C3) PEPC; assay: malate dehydrogenase-coupled NADH assay, secondary plot of kcat/Km(HCO3-) against PEP; assay type: biochemical; details: substrate constant at limiting bicarbonate, not inhibition; pH 8.0, 25 °C, 10 mM MgCl2
T1 construct: gene ppc-1P3; full-length, 969 codons, codon-optimised synthetic gene, N-terminal His6 tag kept, E. coli BL21(DE3)
Description: malate dehydrogenase-coupled NADH assay, secondary plot of kcat/Km(HCO3-) against PEP on Panicum pygmaeum (C3) PEPC

[2] = target: T2, Panicum queenslandicum (C4) PEPC; assay: as above; assay type: biochemical; details: substrate constant at limiting bicarbonate, not inhibition; pH 8.0, 25 °C, 10 mM MgCl2
T2 construct: gene ppc-1P3; full-length, 962 codons, N-terminal His6 tag kept, E. coli BL21(DE3), cloned from leaf cDNA
Description: malate dehydrogenase-coupled NADH assay, secondary plot of kcat/Km(HCO3-) against PEP on Panicum queenslandicum (C4) PEPC

[3] = target: T3, Flaveria pringlei (C3) PEPC (Flaveria pringlei, UniProt Q01647); assay: as above; assay type: biochemical; details: substrate constant at limiting bicarbonate, not inhibition; pH 8.0, 25 °C, 10 mM MgCl2
T3 construct: gene PPCA1; full-length, 967 codons, N-terminal His6 tag kept (pET-1B His6 TEV LIC), E. coli BL21(DE3)
Description: malate dehydrogenase-coupled NADH assay, secondary plot of kcat/Km(HCO3-) against PEP on Flaveria pringlei (C3) PEPC

[4] = system: T2, Panicum queenslandicum (C4) PEPC; assay: malate dehydrogenase-coupled NADH assay, […] nm, secondary plot; assay type: biochemical; details: co-substrate bicarbonate; pH 8.0, 25 °C, 10 mM MgCl2; read-out: KmPEP
[5] = target: T4, Flaveria trinervia (C4) PEPC (Flaveria trinervia, UniProt P30694); assay: malate dehydrogenase-coupled NADH assay, secondary plot of kcat/Km(HCO3-) against PEP; assay type: biochemical; details: substrate constant at limiting bicarbonate, not inhibition; pH 8.0, 25 °C, 10 mM MgCl2
T4 construct: gene PPCA; full-length, 967 codons, N-terminal His6 tag kept (pET-1B His6 TEV LIC), E. coli BL21(DE3)
Description: malate dehydrogenase-coupled NADH assay, secondary plot of kcat/Km(HCO3-) against PEP on Flaveria trinervia (C4) PEPC

[6] = system: T1, Panicum pygmaeum (C3) PEPC; assay: malate dehydrogenase-coupled NADH assay, […] nm, secondary plot; assay type: biochemical; details: co-substrate bicarbonate; pH 8.0, 25 °C, 10 mM MgCl2; read-out: KmPEP
[7] = target: T1, Panicum pygmaeum (C3) PEPC; assay: malate dehydrogenase-coupled NADH assay, […] nm; assay type: biochemical; details: pH 8.0, 25 °C, 10 mM MgCl2, 5 mM KHCO3, PEP varied
[8] = target: T2, Panicum queenslandicum (C4) PEPC; assay: malate dehydrogenase-coupled NADH assay, […] nm; assay type: biochemical; details: pH 8.0, 25 °C, 10 mM MgCl2, 5 mM KHCO3, PEP varied
[9] = target: T3, Flaveria pringlei (C3) PEPC; assay: malate dehydrogenase-coupled NADH assay, […] nm; assay type: biochemical
[10] = target: T4, Flaveria trinervia (C4) PEPC; assay: malate dehydrogenase-coupled NADH assay, […] nm; assay type: biochemical
[11] = system: T5, Panicum pygmaeum (C3) PEPC; details: read-out: KmHCO3-; co-substrate PEP; pH 8.0, 25 °C, 10 mM MgCl2
T5 construct: gene ppc-1P3

[12] = system: T6, Panicum queenslandicum (C4) PEPC; details: read-out: KmHCO3-; co-substrate PEP; pH 8.0, 25 °C, 10 mM MgCl2
T6 construct: gene ppc-1P3

[13] = substrate: O=C(O)O; assay: purified protein; details: co-substrate PEP, pH 8.0, 25 °C, 10 mM MgCl2
[14] = substrate: C=C(OP(=O)(O)O)C(=O)O; assay: purified protein; assay type: biochemical, Flaveria trinervia; details: co-substrate bicarbonate, pH 8.0, 25 °C, 10 mM MgCl2
[15] = substrate: C=C(OP(=O)(O)O)C(=O)O; assay: purified protein; assay type: biochemical, Flaveria pringlei; details: co-substrate bicarbonate, pH 8.0, 25 °C, 10 mM MgCl2
[16] = competitive, read-out: KicAspartate
[17] = mixed inhibitor, competitive constant (limiting PEP), read-out: KicMalate

C=C(OP(=O)(O)O)C(=O)O [PEP]
KiPEP [1]: 0.05 ± 0.01 mM | KiPEP [2]: 4.39 ± 1.10 mM | KiPEP [3]: 0.02 ± 0.01 mM | Km [4]: 4170 ± 300 µM | KiPEP [5]: 0.40 ± 0.13 mM | Km [6]: 170 ± 50 µM

N[C@@H](CC(=O)O)C(=O)O [aspartate]
Ki [7, 16]: 2.27 ± 0.02 mM | Ki [8, 16]: 49.4 ± 7.86 mM | Ki ([9]; read-out: KicAspartate): 4.13 ± 0.6 mM | Ki ([10]; read-out: KicAspartate): 40 ± 6.49 mM

O=C(O)O [bicarbonate]
Km [11]: 120 ± 20 µM | Km [12]: 40 ± 20 µM

O=C(O)C[C@H](O)C(=O)O [malate]
Ki [7, 17]: 0.52 ± 0.22 mM | Ki [8, 17]: 7.51 ± 1.17 mM | Ki ([9]; read-out: KicMalate): 2.14 ± 0.62 mM | Ki ([10]; read-out: KicMalate): 11 ± 1.55 mM

B1: Flaveria trinervia (C4) PEPC (Flaveria trinervia) (protein)
chain: MANRNVEKLASIDAQLRLLVPGKVSEDDKLVEYDALLLDKFLDILQDLHGEDLKEAVQQCYELSAEYEGKHDPKKLEELGSLLTSLDTGDSIVIAKAFSHMLNLANLAEELQIAYRRRIKLKSGDFADEANATTESDIEETFKRLVHKLNKSPEEVFDALKNQTVELVLTAHPTQSVRRSLLQKHGRIRNCLAQLYAKDITPDDKQELDEALHREIQAAFRTDEIRRTPPTPQDEMRAGMSYFHETIWKGVPKFLRRVDTALKNIGINERFPYNAPLIQFSSWMGGDRDGNPRVTPEVTRDVCLLARMMTSNMYFSQIEDLMIEMSMWRCNSELRVRAEELYRTARKDVKHYIEFWKRIPPNQPYRVILGDVRDKLYNTRERSRHLLVDGKSDIPDEAVYTNVEQLLEPLELCYRSLCDCGDHVIADGSLLDFLRQVSTFGLSLVKLDIRQESDRHTEVLDAITQHLGIGSYREWSEEKRQEWLLAELSGKRPLIGPDLPKTEEVKDCLDTFKVLAELPSDCFGAYIISMATSTSDVLAVELLQREYHIKHPLRVVPLFEKLADLEAAPAAMTRLFSMDWYRNRIDGKQEVMIGYSDSGKDAGRFSAAWQLYKTQEQIVKIAKEFGVKLVIFHGRGGTVGRGGGPTHLALLSQPPDTINGSLRVTVQGEVIEQSFGEEHLCFRTLQRFCAATLEHGMNPPISPRPEWRELMDQMAVVATEEYRSVVFKEPRFVEYFRLATPELEFGRMNIGSRPSKRKPSGGIESLRAIPWIFSWTQTRFHLPVWLGFGAAFKHAIQKDSKNLQMLQEMYKTWPFFRVTIDLVEMVFAKGNPGIAALNDKLLVSEDLRPFGESLRANYEETKNYLLKIAGHKDLLEGDPYLKQGIRLRDPYITTLNVCQAYTLKRIRDPNYHVTLRPHISKEYAAEPSKPADELIHLNPTSEYAPGLEDTLILTMKGIAAGMQNTG
notes: full-length, 967 codons, N-terminal His6 tag kept (pET-1B His6 TEV LIC), E. coli BL21(DE3)
Km [13]: 70 ± 10 µM | kcat [13]: 47.99 ± 1.21 s⁻¹ | kcat/Km [13]: 690000 M⁻¹ s⁻¹ | Km [14]: 600 ± 50 µM | kcat [14]: 47.99 ± 1.21 s⁻¹ | kcat/Km [14]: 80000 ± 5400 M⁻¹ s⁻¹

B2: Flaveria pringlei (C3) PEPC (Flaveria pringlei) (protein)
chain: MANRNLEKLASIDAQLRLLVPGKVSEDDKLIEYDALLLDKFLDILQDLHGEDLKEAVQECYELSAEYEGKHDPKKLEELGSVLTSLDPGDSIVIAKAFSHMLNLANLAEEVQIAYRRRIKLKRGDFADEANATTESDIEETFKKLVLKLNKSPEEVFDALKNQTVDLVLTAHPTQSVRRSLLQKHGRIRNCLAQLYAKDITPDDKQELDEALHREIQAAFRTDEIRRTPPTPQDEMRAGMSYFHETIWKGVPKFLRRVDTALKNIGINERVPYNAPLIQFSSWMGGDRDGKHPRVTPEVTRDVCLLARMMASNMYFSQIEDLMFEMSMWRCNSELRVRAEELYRTARRDVKHYIEFWKQVPPTEPYRVILGDVRDKLYNTRERSRHLLAHGISDIPEEAVYTNVEQFLEPLELCYRSLCDCGDRVIADGSLLDFLRQVSTFGLSLVKLDIRQESDRHTDVLDAITQHLEIGSYREWSEEKRQEWLLAELSGKRPLFGSDLPKTEEVKDVLDTFNVLAELPSDCFGAYIISMATSPSDVLAVELLQRECHVKHPLRVVPLFEKLADLEAAPAAMARLFSIDWYRNRIDGKQEVMIGYSDSGKDAGRFSAAWQLYKAQEEIIKVAKEFGVKLVIFHGRGGTVGRGGGPTHLAILSQPPDTIHGSLRVTVQGEVIEQSFGEEHLCFRTLQRFCAATLEHGMNPPISPRPEWRELMDQMAVVATEEYRSIVFKEPRFVEYFRLATPELEYGRMNIGSRPSKRKPSGGIESLRAIPWIFAWTQTRFHLPVWLGFGAAFKHAIKKDSKNLQMLQEMYKTWPFFRVTIDLVEMVFAKGDPGIAALNDKLLVSEDLWPFGESLRANYEETKDYLLKIAGHRDLLEGDPYLKQRIRLRDSYITTLNVCQAYTLKRIRDPNYHVTLRPHISKEYAAEPSKPADELIHLNPTSEYAPGLEDTLILTMKGIAAGMQNTG
notes: as for B1
Km [13]: 100 ± 10 µM | kcat [13]: 52.65 ± 1.37 s⁻¹ | kcat/Km [13]: 440000 M⁻¹ s⁻¹ | Km [15]: 60 ± 10 µM | kcat [15]: 52.65 ± 1.37 s⁻¹ | kcat/Km [15]: 940000 ± 84900 M⁻¹ s⁻¹
